# Test results from patent publication US20240252474A1, “METHODS AND COMPOSITIONS COMPRISING A CARDIO-TOLERATED HDAC INHIBITOR” (HUYABIO International, LLC, priority 2023, published 2024).
# Test: Phase 1b safety and tolerability of HBI-8000 combined with nivolumab (DLTs, TEAEs)
# Type: in vivo
# Description: The present example, was a Phase Ib/2 open-label dose finding study for HBI-8000 (also referred to in the art as “chidamide” or “tucidinostat” and also referred to herein as a compound of formula I) in combination with nivolumab in patients with advanced solid tumors, including melanoma, RCC (renal cell carcinoma), and NSCLC (non-small cell lung cancer). This study was conducted in accordance with Good Clinical Practice guidelines and the Declaration of Helsinki and with assurance/approval from the US Department of Health and Human Services; the protocol was approved by the institutional review boards or ethics committees of all participating sites. All patients provided written informed consent to participate before enrollment. […]
# HBI-8000 at three dose levels (20 mg, 30 mg, and 40 mg) given orally twice a week (BIW) were evaluated. Doses were taken approximate 30 minutes after a meal. The starting dose (20 mg) was selected based on pharmacokinetic profiles established for monotherapy in Japanese patients with T-cell lymphoma.
# The decision to escalate the dose was based on the conventional 3+3 design and observed incidences of dose-limiting toxicities (DLTs). Each treatment cycle was defined as 28 days. […] Subjects experiencing DLT within the first two weeks after having received 100% of assigned dose of HBI-8000 are also evaluable for DLT. Unacceptable toxicities were defined as grade 3 or higher non-hematologic and hematologic toxicities with clinical complications. Unacceptable toxicities observed over the first 28 days following HBI-8000 administration were considered as DLTs. […] HBI-8000 administration continued until disease progression or unacceptable toxicity was observed. The efficacy of the combination was further evaluated in an expanded cohort of selected patient populations at RP2D based on an objective response rate according to Response Evaluation Criteria in Solid Tumors (RECIST) version 1.1 criteria, progression-free survival, and duration of responses.
# Safety evaluations included physical examinations, vital signs, ECGs, ECOG performance status, and laboratory tests.
# Statistical analyses of safety, tolerability, and anti-tumor activity were primarily descriptive in nature. Toxicities were tabulated by type and grade. The safety population included all patients who received ≥1 dose of HBI-8000 and nivolumab. Continuous variables were summarized using descriptive statistics and categorical variables were summarized with number and percentage at each category. Pharmacokinetic parameters were derived using noncompartmental methods with Phoenix® WinNonlin® Version 6.4 (Certara, L. P., Princeton, NJ, USA).
# [1] = 20 mg HBI-8000 BIW + nivolumab, N = 3
# [2] = 30 mg HBI-8000 BIW + nivolumab, N = 7
# [3] = 40 mg HBI-8000 BIW + nivolumab, N = 7
smiles,measurement,setting,value
"Nc1cc(F)ccc1NC(=O)c1ccc(CNC(=O)/C=C/c2cccnc2)cc1 [HBI-8000, N-(2-amino-4-fluorophenyl)-4-[[[(2E)-1-oxo-3-(3-pyridinyl)-2-propen-1-yl]amino]methyl]benzamide]","Alanine aminotransferase increased, All, G < 3",[1],1 (33) n (%)
same,"Alanine aminotransferase increased, Related Both, Any G",[1],1 (33) n (%)
same,"Any SAE, number of subjects",[1],1 n
same,"Any TEAE, number of subjects",[1],3 n
same,"Aspartate aminotransferase increased, All, G < 3",[1],1 (33) n (%)
same,"Aspartate aminotransferase increased, Related Both, Any G",[1],1 (33) n (%)
same,"Decreased appetite, All, G < 3",[1],1 (33) n (%)
same,"Dehydration, All, G < 3",[1],1 (33) n (%)
same,"Diarrhoea, All, G < 3",[1],2 (67) n (%)
same,"Diarrhoea, Related Both, Any G",[1],1 (33) n (%)
same,"Dizziness, All, G < 3",[1],1 (33) n (%)
same,"Dyspnoea, All, G < 3",[1],2 (67) n (%)
same,"Dyspnoea, Related Both, Any G",[1],1 (33) n (%)
same,"Fatigue, All, G < 3",[1],2 (67) n (%)
same,"Fatigue, All, G ≥ 3",[1],1 (33) n (%)
same,"Fatigue, Related Both, Any G",[1],1 (33) n (%)
same,"Headache, All, G < 3",[1],1 (33) n (%)
same,"Hypocalcaemia, All, G < 3",[1],1 (33) n (%)
same,"Hypocalcaemia, All, G ≥ 3",[1],1 (33) n (%)
same,"Hypokalaemia, All, G ≥ 3",[1],1 (33) n (%)
same,"Nausea, All, G < 3",[1],2 (67) n (%)
same,"Nausea, All, G ≥ 3",[1],1 (33) n (%)
same,"Oedema peripheral, All, G < 3",[1],1 (33) n (%)
same,"SAE related to HBI-8000 & Nivolumab, number of subjects",[1],0 n
same,"SAE related to HBI-8000 alone, number of subjects",[1],0 n
same,"TEAE related to HBI-8000 & Nivolumab, number of subjects",[1],3 n
same,"TEAE related to HBI-8000 alone, number of subjects",[1],0 n
same,"TEAE resulting in discontinuation of HBI-8000 alone, number of subjects",[1],2 n
same,"TEAE resulting in discontinuation of both HBI-8000 and Nivo, number of subjects",[1],0 n
same,"Vomiting, All, G < 3",[1],1 (33) n (%)
same,"Weight decreased, All, G < 3",[1],1 (33) n (%)
same,"Alanine aminotransferase increased, All, G < 3",[2],2 (29) n (%)
same,"Alanine aminotransferase increased, Related Both, Any G",[2],2 (29) n (%)
same,"Anaemia, All, G < 3",[2],4 (57) n (%)
same,"Anaemia, All, G ≥ 3",[2],1 (14) n (%)
same,"Anaemia, Related Both, Any G",[2],3 (43) n (%)
same,"Any SAE, number of subjects",[2],6 n
same,"Any TEAE, number of subjects",[2],7 n
same,"Aspartate aminotransferase increased, All, G < 3",[2],2 (29) n (%)
same,"Aspartate aminotransferase increased, Related Both, Any G",[2],2 (29) n (%)
same,"Atrial fibrillation, All, G < 3",[2],1 (14) n (%)
same,"Back pain, All, G < 3",[2],4 (57) n (%)
same,"Back pain, Related Both, Any G",[2],1 (14) n (%)
same,"Contusion, All, G < 3",[2],1 (14) n (%)
same,"Contusion, Related Both, Any G",[2],1 (14) n (%)
same,"Decreased appetite, All, G < 3",[2],4 (57) n (%)
same,"Decreased appetite, All, G ≥ 3",[2],1 (14) n (%)
same,"Decreased appetite, Related Both, Any G",[2],3 (43) n (%)
same,"Decreased appetite, Related HBI, Any G",[2],1 (14) n (%)
same,"Dehydration, All, G < 3",[2],2 (29) n (%)
same,"Dehydration, All, G ≥ 3",[2],1 (14) n (%)
same,"Dehydration, Related Both, Any G",[2],1 (14) n (%)
same,"Diarrhoea, All, G < 3",[2],3 (43) n (%)
same,"Diarrhoea, Related Both, Any G",[2],3 (43) n (%)
same,"Dizziness, All, G < 3",[2],2 (29) n (%)
same,"Dizziness, Related Both, Any G",[2],1 (14) n (%)
same,"Dizziness, Related HBI, Any G",[2],1 (14) n (%)
same,"Dyspnoea, All, G < 3",[2],4 (57) n (%)
same,"Dyspnoea, Related Both, Any G",[2],1 (14) n (%)
same,"Fall, All, G < 3",[2],2 (29) n (%)
same,"Fall, Related Both, Any G",[2],1 (14) n (%)
same,"Fatigue, All, G < 3",[2],5 (71) n (%)
same,"Fatigue, All, G ≥ 3",[2],1 (14) n (%)
same,"Fatigue, Related Both, Any G",[2],4 (57) n (%)
same,"Headache, All, G < 3",[2],2 (29) n (%)
same,"Headache, Related Both, Any G",[2],1 (14) n (%)
same,"Hypocalcaemia, All, G < 3",[2],3 (43) n (%)
same,"Hypocalcaemia, Related Both, Any G",[2],2 (29) n (%)
same,"Hypokalaemia, All, G < 3",[2],2 (29) n (%)
same,"Hypokalaemia, All, G ≥ 3",[2],1 (14) n (%)
same,"Hypokalaemia, Related Both, Any G",[2],1 (14) n (%)
same,"Hypophosphataemia, All, G < 3",[2],3 (43) n (%)
same,"Hypophosphataemia, All, G ≥ 3",[2],3 (43) n (%)
same,"Hypophosphataemia, Related Both, Any G",[2],2 (29) n (%)
same,"Hypophosphataemia, Related HBI, Any G",[2],1 (14) n (%)
same,"Hypotension, All, G < 3",[2],1 (14) n (%)
same,"Hypotension, All, G ≥ 3",[2],2 (29) n (%)
same,"Hypotension, Related Both, Any G",[2],1 (14) n (%)
same,"Hypoxia, All, G < 3",[2],1 (14) n (%)
same,"Hypoxia, All, G ≥ 3",[2],3 (43) n (%)
same,"Hypoxia, Related Both, Any G",[2],1 (14) n (%)
same,"Lipase increased, All, G < 3",[2],3 (43) n (%)
same,"Lipase increased, All, G ≥ 3",[2],4 (57) n (%)
same,"Lipase increased, Related Both, Any G",[2],2 (29) n (%)
same,"Lymphocyte count decreased, All, G < 3",[2],3 (43) n (%)
same,"Lymphocyte count decreased, All, G ≥ 3",[2],3 (43) n (%)
same,"Lymphocyte count decreased, Related Both, Any G",[2],2 (29) n (%)
same,"Nausea, All, G < 3",[2],3 (43) n (%)
same,"Nausea, Related HBI, Any G",[2],1 (14) n (%)
same,"Neutrophil count decreased, All, G < 3",[2],2 (29) n (%)
same,"Neutrophil count decreased, All, G ≥ 3",[2],1 (14) n (%)
same,"Neutrophil count decreased, Related Both, Any G",[2],1 (14) n (%)
same,"Neutrophil count decreased, Related HBI, Any G",[2],1 (14) n (%)
same,"Non-cardiac chest pain, All, G < 3",[2],2 (29) n (%)
same,"Oedema peripheral, All, G < 3",[2],4 (57) n (%)
same,"Oedema peripheral, All, G ≥ 3",[2],1 (14) n (%)
same,"Oedema peripheral, Related Both, Any G",[2],1 (14) n (%)
same,"Oedema peripheral, Related HBI, Any G",[2],1 (14) n (%)
same,"Platelet count decreased, All, G < 3",[2],4 (57) n (%)
same,"Platelet count decreased, Related Both, Any G",[2],3 (43) n (%)
same,"Platelet count decreased, Related HBI, Any G",[2],1 (14) n (%)
same,"Pleural effusion, All, G < 3",[2],3 (43) n (%)
same,"Pleural effusion, Related Both, Any G",[2],1 (14) n (%)
same,"SAE related to HBI-8000 & Nivolumab, number of subjects",[2],0 n
same,"SAE related to HBI-8000 alone, number of subjects",[2],0 n
same,"TEAE related to HBI-8000 & Nivolumab, number of subjects",[2],5 n
same,"TEAE related to HBI-8000 alone, number of subjects",[2],4 n
same,"TEAE resulting in discontinuation of HBI-8000 alone, number of subjects",[2],1 n
same,"TEAE resulting in discontinuation of both HBI-8000 and Nivo, number of subjects",[2],1 n
same,"Vomiting, All, G < 3",[2],1 (14) n (%)
same,"Vomiting, Related Both, Any G",[2],1 (14) n (%)
same,"Weight decreased, All, G < 3",[2],5 (71) n (%)
same,"Weight decreased, Related Both, Any G",[2],3 (43) n (%)
same,"White blood cell count decreased, All, G < 3",[2],2 (29) n (%)
same,"White blood cell count decreased, All, G ≥ 3",[2],1 (14) n (%)
same,"White blood cell count decreased, Related Both, Any G",[2],2 (29) n (%)
same,"White blood cell count decreased, Related HBI, Any G",[2],2 (29) n (%)
same,"Alanine aminotransferase increased, All, G < 3",[3],1 (14) n (%)
same,"Alanine aminotransferase increased, Related Both, Any G",[3],1 (14) n (%)
same,"Anaemia, All, G < 3",[3],4 (57) n (%)
same,"Anaemia, All, G ≥ 3",[3],1 (14) n (%)
same,"Anaemia, Related Both, Any G",[3],1 (14) n (%)
same,"Anaemia, Related HBI, Any G",[3],2 (29) n (%)
